Source: patent publication US8207172B2 (Bayer Intellectual Property GmbH, priority 2004, dated 2012)
Structures can show the parent of a compound that is named as a salt.

How the values were obtained:
[1] = tested on: A431 cells (human epidermoid carcinoma); assay: In vitro tumor cell proliferation assay (Cell Titer-Glo luminescent cell viability), A431; type: cell-based; conditions: A-431, 72 h, 72 hours of drug exposure, ATP luminescence readout, read-out: IC50, anti-proliferative activity (inhibition of cell proliferation)
Procedure, shortened: (§1)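 Seeding density 2.5×10^3 cells/well; 72 h drug exposure at 37° C; endpoint CellTiter-Glo luminescence, reported as IC50.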

[2] = tested on: BT474 (human breast carcinoma); assay: In vitro tumor cell proliferation assay (Cell Titer-Glo luminescent cell viability), BT474; type: cell-based; conditions: BT-474, 72 h, BT474 cells, 72 hours of drug exposure, ATP luminescence readout, read-out: IC50, anti-proliferative activity (inhibition of cell proliferation)
Procedure, shortened: as §1

Compound	IC50 [1] [µM]	IC50 [2] [µM]
O[C@H](CNCCN1CCOCC1)Cn1cc2c(n1)CCc1c-2sc2ncnc(Nc3ccc(OCc4cccc(F)c4)c(Cl)c3)c12 [Example 142, (2R)-1-[6-({3-chloro-4-[(3-fluorobenzyl)oxy]phenyl}amino)-4,5-dihydro-2H-pyrimido[5′,4′:4,5]thieno[2,3-e]indazol-2-yl]-3-[(2-morpholin-4-ylethyl)amino]propan-2-ol]	≤ 50	≤ 1
OC1CCN(CCn2ncc3c2CCc2c-3sc3ncnc(Nc4ccc5c(cnn5Cc5cccc(F)c5)c4)c23)C1 (centres unmarked) [Example 299, 1-[2-(6-{[1-(3-fluorobenzyl)-1H-indazol-5-yl]amino}-4,5-dihydro-3H-pyrimido[5′,4′:4,5]thieno[2,3-e]indazol-3-yl)ethyl]pyrrolidin-3-ol]	≤ 5	≤ 1
CN(C)[C@@H]1CCN(CCn2cc3c(n2)CCc2c-3sc3ncnc(Nc4ccc(F)c(Cl)c4)c23)C1 [Example 3, N-(3-chloro-4-fluorophenyl)-2-{2-[(3R)-3-(dimethylamino)pyrrolidin-1-yl]ethyl}-4,5-dihydro-2H-pyrimido[5′,4′:4,5]thieno[2,3-e]indazol-6-amine]	≤ 5	≤ 5
O=C(Cn1ncc2c1CCc1c-2sc2ncnc(Nc3ccc(OCc4cccc(F)c4)c(Cl)c3)c12)NCCO [Example 209, 2-[6-({3-chloro-4-[(3-fluorobenzyl)oxy]phenyl}amino)-4,5-dihydro-3H-pyrimido[5′,4′:4,5]thieno[2,3-e]indazol-3-yl]-N-(2-hydroxyethyl]acetamide]	≤ 50	≤ 1
O[C@@H]1CCN(CCn2cc3c(n2)CCc2c-3sc3ncnc(Nc4ccc(F)c(Cl)c4)c23)C1 [Example 33, (3R)-1-(2-{6-[(3-chloro-4-fluorophenyl)amino]-4,5-dihydro-2H-pyrimido[5′,4′:4,5]thieno[2,3-e]indazol-2-yl}ethyl)-pyrrolidin-3-ol]	≤ 5	≤ 5
COCCN(CCOC)CCn1ncc2c1CCc1c-2sc2ncnc(Nc3ccc(OCc4cccc(F)c4)c(Cl)c3)c12 [Example 260, 3-{2-[bis(2-methoxyethyl)amino]ethyl}-N-{3-chloro-4-[(3-fluorobenzyl)oxy]phenyl}-4,5-dihydro-3H-pyrimido[5′,4′:4,5]thieno[2,3-e]indazol-6-amine]	≤ 50	≤ 5
OCCn1ncc2c1CCc1c-2sc2ncnc(Nc3ccc(OCc4cccc(F)c4)c(Cl)c3)c12 [Example 80, 2-[6-({3-chloro-4-[(3-fluorobenzyl)oxy]phenyl}amino)-4,5-dihydro-3H-pyrimido[5′,4′:4,5]thieno[2,3-e]indazol-3-yl]ethanol]	≤ 5	≤ 1
O=C(Cn1ncc2c1CCc1c-2sc2ncnc(Nc3ccc(OCc4cccc(F)c4)c(Cl)c3)c12)Nc1ccccn1 [Example 195, 2-[6-({3-chloro-4-[(3-fluorobenzyl)oxy]phenyl}amino)-4,5-dihydro-3H-pyrimido[5′,4′:4,5]thieno[2,3-e]indazol-3-yl]-N-pyridin-2-ylacetamide]	≤ 50	≤ 1
NC[C@@H](O)Cn1cc2c(n1)CCc1c-2sc2ncnc(Nc3ccc(OCc4cccc(F)c4)c(Cl)c3)c12 [Example 160, (2R)-1-amino-3-[6-({3-chloro-4-[(3-fluorobenzyl)oxy]phenyl}amino)-4,5-dihydro-2H-pyrimido[5′,4′:4,5]thieno[2,3-e]indazol-2-yl]propan-2-ol trifluoroacetate (salt)]	≤ 50	≤ 5
CC[N+]1(CC)CCC(n2cc3c(n2)CCc2c-3sc3ncnc(Nc4ccc(OCc5cccc(F)c5)c(Cl)c4)c23)CC1 [Example 226, 4-[6-({3-chloro-4-[(3-fluorobenzyl)oxy]phenyl}amino)-4,5-dihydro-2H-pyrimido[5′,4′:4,5]thieno[2,3-e]indazol-2-yl]-1,1-diethylpiperidinium trifluoroacetate]	≤ 5	≤ 1
CN1CCN(CCn2cc3c(n2)CCc2c-3sc3ncnc(Nc4ccc(N5CCOCC5)c(Cl)c4)c23)CC1 [Example 48, N-(3-chloro-4-morpholin-4-ylphenyl)-2-[2-(4-methylpiperazin-1-yl)ethyl]-4,5-dihydro-2H-pyrimido[5′,4′:4,5]thieno[2,3-e]indazol-6-amine]	≤ 50	≤ 5
CN1CCN(CCn2ncc3c2CCc2c-3sc3ncnc(Nc4ccc(OCc5cccc(C(F)(F)F)c5)c(Cl)c4)c23)CC1 [Example 319, N-(3-chloro-4-{[3-(trifluoromethyl)benzyl]oxy}phenyl)-3-[2-(4-methylpiperazin-1-yl)ethyl]-4,5-dihydro-3H-pyrimido[5′,4′:4,5]thieno[2,3-e]indazol-6-amine]	≤ 5	≤ 5
O[C@H](Cn1ccnc1)Cn1ncc2c1CCc1c-2sc2ncnc(Nc3ccc(OCc4cccc(F)c4)c(Cl)c3)c12 [Example 170, (2R)-1-[6-({3-chloro-4-[(3-fluorobenzyl)oxy]phenyl}amino)-4,5-dihydro-3H-pyrimido[5′,4′:4,5]thieno[2,3-e]indazol-3-yl]-3-(1H-imidazol-1-yl)propan-2-ol trifluoroacetate (salt)]	≤ 50	≤ 1
CN1CCN(CCn2ncc3c2CCc2c-3sc3ncnc(Nc4ccc(OCc5ccc(F)cc5)c(Cl)c4)c23)CC1 [Example 322, N-{3-chloro-4-[(4-fluorobenzyl)oxy]phenyl}-3-[2-(4-methylpiperazin-1-yl)ethyl]-4,5-dihydro-3H-pyrimido[5′,4′:4,5]thieno[2,3-e]indazol-6-amine trifluoroacelate]	≤ 5	≤ 1
CC(C)(C)OC(=O)N1CCN(CCn2cc3c(n2)CCc2c-3sc3ncnc(Nc4ccc(OCc5cccc(F)c5)c(Cl)c4)c23)CC1 [Example 72, tert-butyl 4-{2-[6-({3-chloro-4-[(3-fluorobenzyl)oxy]phenyl}amino)-4,5-dihydro-2H-pyrimido[5′,4′:4,5]thieno[2,3-e]indazol-2-yl]ethyl}piperazine-1-carboxylate]	≤ 50	≤ 50
CS(=O)(=O)OCCn1ncc2c1CCc1c-2sc2ncnc(Nc3ccc(OCc4cccc(F)c4)c(Cl)c3)c12 [Example 258, 2-[6-({3-chloro-4-[(3-fluorobenzyl)oxy]phenyl}amino)-4,5-dihydro-3H-pyrimido[5′,4′:4,5]thieno[2,3-e]indazol-3-yl]ethyl methanesulfonate]	≤ 5	≤ 1
OCCN(CCO)CCn1ncc2c1CCc1c-2sc2ncnc(Nc3ccc(OCc4cccc(F)c4)c(Cl)c3)c12 [Example 262, 2,2′-({2-[6-({3-chloro-4-[(3-fluorobenzyl)oxy]phenyl}amino)-4,5-dihydro-3H-pyrimido[5′,4′:4,5]thieno[2,3-e]indazol-3-yl]ethyl}imino)diethanol]	≤ 50	≤ 1
Fc1cccc(Cn2ncc3cc(Nc4ncnc5sc6c(c45)CCc4nn(CCN5CCOCC5)cc4-6)ccc32)c1 [Example 278, N-[1-(3-fluorobenzyl)-1H-indazol-5-yl]-2-(2-morpholin-4-ylethyl)-4,5-dihydro-2H-pyrimido[5′,4′:4,5]thieno[2,3-e]indazol-6-amine]	≤ 5	≤ 1
COCCN1CCN(CCn2cc3c(n2)CCc2c-3sc3ncnc(Nc4ccc5c(cnn5Cc5ccccc5)c4)c23)CC1 [Example 308, N-(1-benzyl-1H-indazol-5-yl)-2-{2-[4-(2-methoxyethyl)piperazin-1-yl]ethyl}-4,5-dihydro-2H-pyrimido[5′,4′:4,5]thieno[2,3-e]indazol-6-amine]	≤ 50	≤ 1
Fc1cccc(COc2ccc(Nc3ncnc4sc5c(c34)CCc3nn(CC4CCNCC4)cc3-5)cc2Cl)c1 [Example 232, N-{3-chloro-4-[(3-fluorobenzyl)oxy]phenyl}-2-(piperidin-4-ylmethyl)-4,5-dihydro-2H-pyrimido[5′,4′:4,5]thieno[2,3-e]indazol-6-amine]	≤ 5	≤ 1
OCCNCCn1cc2c(n1)CCc1c-2sc2ncnc(Nc3ccc4c(cnn4Cc4cccc(F)c4)c3)c12 [Example 281, 2-{[2-(6-{[1-(3-fluorobenzyl)-1H-indazol-5-yl]amino}-4,5-dihydro-2H-pyrimido[5′,4′:4,5]thieno[2,3-e]indazol-2-yl)ethyl]amino}ethanol]	≤ 5	≤ 1
OCCn1ncc2c1CCc1c-2sc2ncnc(Nc3ccc(OCc4ccccn4)c(Cl)c3)c12 [Example 100, 2-(6-{[3-chloro-4-(pyridin-2-ylmethoxy)phenyl]amino}-4,5-dihydro-2H-pyrimido[5′,4′:4,5]thieno[2,3-e]indazol-3-yl)ethanol]	≤ 5	≤ 1
CN(C)[C@H]1CCN(C(=O)Cn2cc3c(n2)CCc2c-3sc3ncnc(Nc4ccc(OCc5cccc(F)c5)c(Cl)c4)c23)C1 [Example 177, N-{3-chloro-4-[(3-fluorobenzyl)oxy]phenyl}-2-{2-[(3S)-3-(dimethylamino)pyrrolidin-1-yl]-2-oxoethyl}-4,5-dihydro-2H-pyrimido[5′,4′:4,5]thieno[2,3-e]indazol-6-amine]	≤ 5	≤ 1
COCCN(C)CCn1cc2c(n1)CCc1c-2sc2ncnc(Nc3ccc(OCc4cccc(F)c4)c(Cl)c3)c12 [Example 69, N-{3-chloro-4-[(3-fluorobenzyl)oxy]phenyl}-2-{2-[(2-methoxyethyl)(methyl)amino]ethyl}-4,5-dihydro-2H-pyrimido[5′,4′:4,5]thieno[2,3-e]indazol-6-amine]	≤ 5	≤ 1
CS(=O)(=O)OCCn1cc2c(n1)CCc1c-2sc2ncnc(Nc3ccc(OCc4ccccc4)c(Cl)c3)c12 [Example 125, 2-(6-{[4-(benzyloxy)-3-chlorophenyl]amino}-4,5-dihydro-2H-pyrimido[5′,4′:4,5]thieno[2,3-e]indazol-2-yl)ethyl methanesulfonate]	≤ 50	≤ 1
